The values that follow are results of earlier work, collected in patent US20170326166A1, “COMPOSITIONS AND METHODS FOR TREATING PITUITARY TUMORS” (University of Virginia Patent Foundation, priority 2014, published 2017).

For data set [1], the system named is cancer cells. The conditions noted are these: in cancer cells; trapped in the cytosol.
Data set [2] deals with cancer cells. The conditions noted are these: cancer cells compared to their normal counterpart cells or other normal cells.

Regarding `O=CC[C@@H](O)[C@H](O)[C@H](O)COP(=O)(O)O` [2-deoxyglucose 6-phosphate], in the data set on cancer cells [1], the intracellular half-life result is on record as “approximately 50 minutes”. In the case of `O=CC[C@@H](O)[C@H](O)[C@H](O)CO` [2DG, 2-Deoxy-D-glucose], the accumulation in cells result with cancer cells [2] is reported as “accumulates predominantly in cancer cells”.
